Assay results from paper PMC6325200, “Effects of Microplate Type and Broth Additives on Microdilution MIC Susceptibility Assays” (Antimicrobial Agents and Chemotherapy, 2018).
Values after ≈ are worked out from the molar mass of the structure shown. Values joined by “and” are separate entries in the source; they are usually repeats but may differ in a detail not shown here. Equal entries are not always repeated. Where two headings read alike, the source gives them in different places. Where a SMILES comes first, the peptide text is derived from it. Bridges are numbered along the chain shown (N, C = ends). [ ]: non-standard residue; d: D form. The star is where a group is joined. X1 = CC[C@H](C)CCCCC(=O)*; Dab = NCC[C@H](N)C(=O)O

Experiments:
E. coli ATCC 25922 = assay: microbe, parasite or virus in culture
Procedure: A positive control of a row of just the bacteria and a negative control of only the medium were included for every plate tested.
The compounds along with standard antibiotics were serially diluted 2-fold across the 96-well plates. […] A sample of each culture was then diluted 40-fold in fresh MH broth (in presence and absence of Tween) and incubated at 37°C for 2 to 3 h.
For experiments in the presence of surfactant, 2% beractant (25 mg/ml) was added to the mid-log-phase cultures and mixed gently and added to all the 96-well plates. For experiments in the presence of serum, a mixture of 50% of human serum along with 50% MHB was prepared and used throughout the experiment.

A. baumannii ATCC 19606 = assay: microbe, parasite or virus in culture; settings: n = 2
Outline: (§1)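 First, a sample of each culture was diluted 40-fold in fresh Mueller-Hinton broth containing or lacking Tween. Next, this was incubated 2 to 3 h at 37°C. Compounds, alongside comparator antibiotics, were tested as 2-fold serial dilutions on 96-well plates.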

K. pneumoniae ATCC 13883 = assay: microbe, parasite or virus in culture; settings: n = 2
Outline: as §1

P. aeruginosa ATCC 10145 = assay: microbe, parasite or virus in culture; settings: n = 2
Outline: as §1

E. coli = settings: literature value; cited from earlier work
[1] = 8 µg/ml, 24 h, cited from earlier work; for % of expected concentration detected: MHB
Excerpt: (§2) Members of the lipopeptide polymyxin class of antibiotics (polymyxin B [compound 7a] and polymyxin E [or colistin, compound 7b]) are important last-line therapeutic agents against many multidrug-resistant Gram-negative bacteria ([27][–][31]). They consist of an N-terminal fatty acid side chain that is attached to a polycationic deca-peptide backbone (Fig. 1) with physicochemical properties similar to those of the lipoglycopeptides. These structural features confer amphipathicity, which is a key feature of many other cationic antimicrobial peptides (CAMPs) ([32][–][34]). As mentioned earlier, p ...

over 200 strains = settings: 0.002% polysorbate added; cited from earlier work
Excerpt: as §2

[2] = literature values, reference given; cited from earlier work
Excerpt: Other assay additives can affect MIC values. […] Plasma protein binding has been implicated as a major factor limiting the active free concentration of many clinically important antibiotics ([37][–][42]).

CC[C@H](C)CCCCC(=O)N[C@@H](CCN)C(=O)N[C@H](C(=O)N[C@@H](CCN)C(=O)N[C@H]1CCNC(=O)[C@H]([C@@H](C)O)NC(=O)[C@H](CCN)NC(=O)[C@H](CCN)NC(=O)[C@H](CC(C)C)NC(=O)[C@@H](CC(C)C)NC(=O)[C@H](CCN)NC1=O)[C@@H](C)O [Colistin, colistin] (X1-[Dab]T[Dab][Dab][Dab][dL]L[Dab][Dab]T; lactam 4-C (inferred); N-terminus assumed)
MIC (E. coli ATCC 25922; Corning NBS, MH + 2% LHB, 2% LS, n = 2): 0.03 to 0.06 µg/mL | MIC (E. coli ATCC 25922; Corning NBS, MH + 2% LHB, 50% HS, n = 2): ≤0.03 µg/mL | MIC (E. coli ATCC 25922; Corning NBS, MH + 2% LHB, no additive, n = 2): ≤0.03 µg/mL | MIC (E. coli ATCC 25922; Corning NBS, MH + T80, 2% LS, n = 2): 0.03 to 0.06 µg/mL | MIC (E. coli ATCC 25922; Corning NBS, MH + T80, 50% HS, n = 2): ≤0.03 µg/mL | MIC (E. coli ATCC 25922; Corning NBS, MH, 2% LS, n = 2): ≤0.03 µg/mL | MIC (E. coli ATCC 25922; Corning NBS, MH, 50% HS, n = 2): ≤0.03 µg/mL | MIC (E. coli ATCC 25922; Corning PS plate, MHB −T80, no additive, n = 2): 0.06 µg/mL (≈ 0.0513 µM) | MIC (E. coli ATCC 25922; Corning PS, MH + 2% LHB, 2% LS, n = 2): 0.06 to 0.125 µg/mL | MIC (E. coli ATCC 25922; Corning PS, MH + 2% LHB, 50% HS, n = 2): ≤0.03 µg/mL | MIC (E. coli ATCC 25922; Corning PS, MH + 2% LHB, no additive, n = 2): 1 µg/mL | MIC (E. coli ATCC 25922; Corning PS, MH + T80, 2% LS, n = 2): 0.03 to 0.06 µg/mL | MIC (E. coli ATCC 25922; Corning PS, MH + T80, 50% HS, n = 2): ≤0.03 µg/mL | MIC (E. coli ATCC 25922; Corning PS, MH, 2% LS, n = 2): 0.06 to 0.25 µg/mL | MIC (E. coli ATCC 25922; Corning PS, MH, 50% HS, n = 2): ≤0.03 µg/mL | MIC (E. coli ATCC 25922; Corning TC plate, MHB +0.002% T80, no further additive, n = 2): 1 µg/mL (≈ 0.855 µM) | MIC (E. coli ATCC 25922; Corning TC plate, MHB −T80, no additive, n = 2): 0.5 to 1 µg/mL | MIC (E. coli ATCC 25922; Corning TC, MH + 2% LHB, 2% LS, n = 2): 2 to 4 µg/mL | MIC (E. coli ATCC 25922; Corning TC, MH + 2% LHB, 50% HS, n = 2): 0.25 to 0.5 µg/mL | MIC (E. coli ATCC 25922; Corning TC, MH + 2% LHB, no additive, n = 2): ≤0.03 µg/mL | MIC (E. coli ATCC 25922; Corning TC, MH + T80, 2% LS, n = 2): 1 to 2 µg/mL | MIC (E. coli ATCC 25922; Corning TC, MH + T80, 50% HS, n = 2): 0.25 to 0.5 µg/mL | MIC (E. coli ATCC 25922; Corning TC, MH, 2% LS, n = 2): 0.5 to 1 µg/mL | MIC (E. coli ATCC 25922; Corning TC, MH, 50% HS, n = 2): 0.125 to 0.5 µg/mL | MIC (E. coli ATCC 25922; NBS plates): ≤ 0.03 µg/mL | MIC (E. coli ATCC 25922; Nunc PS plate, MHB +0.002% T80, n = 2): ≤0.03 µg/mL | MIC (E. coli ATCC 25922; Nunc PS plate, MHB −T80, n = 2): 0.125 to 1 µg/mL | MIC (E. coli ATCC 25922; Nunc U TC plate, MHB +0.002% T80, n = 2): 2 µg/mL (≈ 1.71 µM) | MIC (E. coli ATCC 25922; Nunc U TC plate, MHB −T80, n = 2): 0.5 to 1 µg/mL | MIC (E. coli ATCC 25922; Nunc flat TC plate, MHB +0.002% T80, n = 2): 1 to 2 µg/mL | MIC (E. coli ATCC 25922; Nunc flat TC plate, MHB −T80, n = 2): 1 to 2 µg/mL | MIC (E. coli ATCC 25922; PS plates): ≤0.03 to 1 µg/mL | MIC (E. coli ATCC 25922; PS plates with T80): ≤0.03 to 0.25 µg/mL | MIC (E. coli ATCC 25922; TC plates): 0.5 to 4 µg/mL | MIC (E. coli ATCC 25922; Trek PS plate, MHB +0.002% T80, no further additive, n = 2): ≤0.03 µg/mL | MIC (E. coli ATCC 25922; Trek PS plate, MHB −T80, no additive, n = 2): ≤0.03 µg/mL | MIC (E. coli ATCC 25922; Trek PS, MH + 2% LHB, 2% LS, n = 2): ≤0.03 µg/mL | MIC (E. coli ATCC 25922; Trek PS, MH + 2% LHB, 50% HS, n = 2): 0.03 to 0.06 µg/mL | MIC (E. coli ATCC 25922; Trek PS, MH + 2% LHB, no additive, n = 2): 0.03 to 0.06 µg/mL | MIC (E. coli ATCC 25922; Trek PS, MH + T80, 2% LS, n = 2): ≤0.03 µg/mL | MIC (E. coli ATCC 25922; Trek PS, MH + T80, 50% HS, n = 2): ≤0.03 µg/mL | MIC (E. coli ATCC 25922; Trek PS, MH, 2% LS, n = 2): ≤0.03 µg/mL | MIC (E. coli ATCC 25922; Trek PS, MH, 50% HS, n = 2): ≤0.03 µg/mL | MIC (A. baumannii ATCC 19606; Corning NBS, MHB +T80): ≤ 0.03 µg/mL | MIC (A. baumannii ATCC 19606; Corning NBS, MHB -T80): ≤ 0.03 µg/mL | MIC (A. baumannii ATCC 19606; Corning PS, MHB +T80): 0.06 µg/mL (≈ 0.0513 µM) | MIC (A. baumannii ATCC 19606; Corning PS, MHB -T80): 0.06 to 0.125 µg/mL | MIC (A. baumannii ATCC 19606; Corning TC, MHB +T80): 1 to 2 µg/mL | MIC (A. baumannii ATCC 19606; Corning TC, MHB -T80): 0.5 to 1 µg/mL | MIC (K. pneumoniae ATCC 13883; Corning NBS, MHB +T80): ≤ 0.03 µg/mL | MIC (K. pneumoniae ATCC 13883; Corning NBS, MHB -T80): ≤ 0.03 µg/mL | MIC (K. pneumoniae ATCC 13883; Corning PS, MHB +T80): ≤ 0.03 µg/mL | MIC (K. pneumoniae ATCC 13883; Corning PS, MHB -T80): 0.125 to 0.25 µg/mL | MIC (K. pneumoniae ATCC 13883; Corning TC, MHB +T80): 0.25 to 0.5 µg/mL | MIC (K. pneumoniae ATCC 13883; Corning TC, MHB -T80): 2 µg/mL (≈ 1.71 µM) | MIC (P. aeruginosa ATCC 10145; Corning NBS, MHB +T80): 0.125 µg/mL (≈ 0.107 µM) | MIC (P. aeruginosa ATCC 10145; Corning NBS, MHB -T80): 0.06 µg/mL (≈ 0.0513 µM) | MIC (P. aeruginosa ATCC 10145; Corning PS, MHB +T80): 0.25 to 0.5 µg/mL | MIC (P. aeruginosa ATCC 10145; Corning PS, MHB -T80): 0.25 to 0.5 µg/mL | MIC (P. aeruginosa ATCC 10145; Corning TC, MHB +T80): 1 to 2 µg/mL | MIC (P. aeruginosa ATCC 10145; Corning TC, MHB -T80): 0.5 to 2 µg/mL | MIC (literature) (E. coli): 0.5–2 ([70]) µg/ml | % of concentration remaining ([1]; Greiner untreated PS microwell plates): 2% | % of expected concentration detected ([1]; PP tubes): 90% | % of expected concentration detected ([1]; PS tubes): 84% | % of expected concentration detected ([1]; glass tubes): 80% | % of concentration remaining ([1]; Nunc untreated PS microwell plates): 70% | more potent MICs with surfactant present (over 200 strains): 4- to 8 fold | protein binding [2]: 50 to 60% and 60%
